According to BindingDB's records for patent US12128028 (Metrion Biosciences, 2024):

Target: Potassium voltage-gated channel subfamily A member 3 (Homo sapiens, UniProt P22001)
Assay: Biological Assay
Protocol: The QPatch HT system (Sophion Bioscience A/S, Denmark) was used with the conventional whole-cell configuration. This system is an automated, chip-based planar patch clamp device allowing for up to 48 parallel independent experiments in one experimental assay run. Cells are added to each well and drawn by suction onto a small aperture to obtain a Gigaohm seal between the cell membrane and treated silicon surface, and whole-cell recordings initiated after access is achieved by suction and/or voltage pulses. The QPatch HT uses static perfusion, whereby a small volume of recording solution or drug is added to a reservoir on the chip and the solution perfuses across the cell through quartz-lined microfluidic channels; this solution is removed by capillary action when the next sample application is made.CHO-Kv1.3 cells were prepared for experiments by dissociation from T175 cell culture flasks using trypsin-EDTA (0.05%), cells were kept in serum free media in the cell hotel on board the QPatch HT. These cells were sampled, washed and re-suspended in extracellular recording solution by the QPatch HT immediately before application to the recording well site on the chip. Experiments were performed using the following solutions; extracellular solution contained (in mM); 150 NaCl, 10 KCl, 1 MgCl2, 3 CaCl2), 10 Glucose and 10 HEPES (pH 7.4, NaOH) and intracellular solution contained (in mM); 20 KCl, 120 KF, 10 HEPES, 10 EGTA, 5 ATP (pH 7.2, KOH).The potency (Inhibitory Concentration 50%, IC50) of synthesized compounds against Kv1.3 was determined from concentration-response relationships established by cumulatively applying four escalating concentrations of test compound to an individual cell and a minimum of N≥3 individual cells of data per compound were used to generate the IC50 value.

Potassium voltage-gated channel subfamily A member 3, sequence (P22001 whole entry): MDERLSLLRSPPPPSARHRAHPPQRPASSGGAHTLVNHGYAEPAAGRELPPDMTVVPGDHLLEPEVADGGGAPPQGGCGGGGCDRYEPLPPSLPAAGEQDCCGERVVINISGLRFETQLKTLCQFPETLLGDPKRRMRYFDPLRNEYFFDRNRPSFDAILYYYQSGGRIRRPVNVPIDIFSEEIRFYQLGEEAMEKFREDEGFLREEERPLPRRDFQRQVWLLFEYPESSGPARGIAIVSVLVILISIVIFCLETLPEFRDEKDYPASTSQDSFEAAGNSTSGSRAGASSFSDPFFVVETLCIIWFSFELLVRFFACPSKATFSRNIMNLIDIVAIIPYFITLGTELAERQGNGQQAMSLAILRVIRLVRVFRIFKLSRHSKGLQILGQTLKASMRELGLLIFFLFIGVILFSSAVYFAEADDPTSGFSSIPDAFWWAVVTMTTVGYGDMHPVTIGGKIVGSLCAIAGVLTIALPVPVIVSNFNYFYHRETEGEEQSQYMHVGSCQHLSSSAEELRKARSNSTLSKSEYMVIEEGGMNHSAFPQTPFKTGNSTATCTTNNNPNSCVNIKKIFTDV

Row | IC50 [nM] | SMILES
1 | 103 | CC1(C)N=C(C23CC(N(Cc4ccc(Cl)c(F)c4)S(=O)(=O)c4ccccc4)(C2)C3)N[C@H]1C(=O)N1CCC[C@H](C(F)(F)F)C1 (racemic) [US12128028, Example 173]
2 | 212 | CC[C@@H]1N=C(C23CC(N(Cc4ccc(C(F)(F)F)cc4)S(=O)(=O)c4ccc(F)cc4)(C2)C3)N[C@@]1(C)C(=O)NCCC(F)(F)F (racemic) [US12128028, Example 235]
3 | 365 | CC[C@H]1N=C(C23CC(N(Cc4ccc(C(F)(F)F)cc4)S(=O)(=O)c4ccc(F)cc4)(C2)C3)N[C@@]1(C)C(=O)NCCC(F)(F)F (racemic) [US12128028, Example 259]
